# Source: the Kinase Knowledgebase extract (Sharma et al. 2016)
# “And” between values parts separate entries of the source, which are not always exact repeats. Identical values can stand only once.
# Biological target: EGFR (Human), P00533 [T790M/L858R]
# Settings: nci-h1975
# Chain of EGFR (Human), P00533 [T790M/L858R] (P00533 whole entry T790M/L858R, looked up): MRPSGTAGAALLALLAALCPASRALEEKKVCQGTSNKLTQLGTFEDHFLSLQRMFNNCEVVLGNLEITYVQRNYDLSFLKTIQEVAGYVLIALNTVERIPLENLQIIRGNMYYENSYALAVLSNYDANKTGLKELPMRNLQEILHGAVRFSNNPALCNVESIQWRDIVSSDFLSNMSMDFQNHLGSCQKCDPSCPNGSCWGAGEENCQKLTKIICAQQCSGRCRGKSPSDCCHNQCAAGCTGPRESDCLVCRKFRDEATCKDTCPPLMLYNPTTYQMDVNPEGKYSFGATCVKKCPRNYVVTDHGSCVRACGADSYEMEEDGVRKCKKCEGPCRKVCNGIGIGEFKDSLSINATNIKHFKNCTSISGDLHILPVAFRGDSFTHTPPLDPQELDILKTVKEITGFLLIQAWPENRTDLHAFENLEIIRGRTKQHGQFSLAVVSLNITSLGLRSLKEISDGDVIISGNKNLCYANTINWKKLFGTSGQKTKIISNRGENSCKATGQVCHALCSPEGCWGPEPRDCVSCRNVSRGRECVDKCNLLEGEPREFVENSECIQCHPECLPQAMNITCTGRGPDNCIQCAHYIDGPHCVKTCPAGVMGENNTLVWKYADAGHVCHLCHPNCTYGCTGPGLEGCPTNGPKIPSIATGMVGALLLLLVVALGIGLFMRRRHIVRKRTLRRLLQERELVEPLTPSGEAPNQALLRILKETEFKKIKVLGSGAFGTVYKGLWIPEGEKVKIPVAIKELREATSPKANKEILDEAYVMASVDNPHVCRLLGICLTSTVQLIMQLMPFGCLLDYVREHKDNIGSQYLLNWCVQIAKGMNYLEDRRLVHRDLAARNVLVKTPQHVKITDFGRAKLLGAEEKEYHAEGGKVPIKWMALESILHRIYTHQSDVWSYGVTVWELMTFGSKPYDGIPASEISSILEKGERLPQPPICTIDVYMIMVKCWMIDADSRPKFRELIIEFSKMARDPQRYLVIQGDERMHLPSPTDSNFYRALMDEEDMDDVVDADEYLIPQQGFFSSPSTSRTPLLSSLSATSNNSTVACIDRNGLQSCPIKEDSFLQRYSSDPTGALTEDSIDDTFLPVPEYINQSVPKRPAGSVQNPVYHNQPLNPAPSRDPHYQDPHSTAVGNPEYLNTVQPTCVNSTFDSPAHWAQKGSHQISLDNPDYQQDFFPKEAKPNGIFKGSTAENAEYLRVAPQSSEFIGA
row,SMILES,EC50
1,CC(C)n1nc(N2CC(CO)C2)c2cnc(Nc3ccnc(-c4cnn(S(=O)(=O)C5CC5)c4)n3)cc21,271 nM
2,CC(n1nc(N2CC3(COC3)C2)c2cnc(Nc3ccnc(N4CCC(C)(O)CC4)n3)cc21)C(F)(F)F (stereo not given),3290 nM
3,CC(C)n1nc(NCCC(N)=O)c2cnc(Nc3ccnc(-c4cnn(S(=O)(=O)C5CC5)c4)n3)cc21,3970 nM
4,CC(C)n1nc(N2CC3(C2)CS(=O)(=O)C3)c2cnc(Nc3ccnc(N4CCC(C)(O)CC4)n3)cc21,3090 nM
5,CC(C)n1nc(OC2CCOC2)c2cnc(Nc3ccnc(-c4cnn(S(=O)(=O)C5CC5)c4)n3)cc21 (stereo not given),798 nM
6,CCC(C)n1nc(N2CCCC2=O)c2cnc(Nc3ccnc(N4CCC(C)(O)CC4)n3)cc21 (stereo not given),569 nM
7,CC(C)n1nc(N2CCN=C2O)c2cnc(Nc3ccnc(-c4cnn(S(=O)(=O)C5CC5)c4)n3)cc21,237 nM
8,CCC(C)n1nc(N2CC(C(C)O)C2)c2cnc(Nc3ccnc(-c4cnn(S(=O)(=O)C5CC5)c4)n3)cc21 (stereo not given),537 nM
9,CC(C)n1nc(N2CC3CCC(C2)O3)c2cnc(Nc3ccnc(-c4cnn(S(=O)(=O)C5CC5)c4)n3)cc21,1210 nM
10,CC(C)n1nc(N2CC[C@@H](N)C2=O)c2cnc(Nc3ccnc(N4CCC(C)(O)CC4)n3)cc21,8120 nM
11,CC(C)n1nc(N2CC(O)(CO)C2)c2cnc(Nc3ccnc(-c4cnn(S(=O)(=O)C5CC5)c4)n3)cc21,660 nM
12,CC(C)n1nc(N2CCOCC2)c2cnc(Nc3ccnc(-c4cnn(S(=O)(=O)C5CC5)c4)n3)cc21,266 nM
13,CCC(C)n1nc(N2CCN(C(=O)[C@@H](C)O)CC2)c2cnc(Nc3ccnc(-c4cnn(S(=O)(=O)C5CC5)c4)n3)cc21 (stereo not given in full),1090 nM
14,CC(C)n1nc(N2CC(C(C)(C)C(N)=O)C2)c2cnc(Nc3ccnc(N4CCC(C)(O)CC4)n3)cc21,> 10000 nM
15,CC[C@@H](C)n1nc(N2CC3(COC3)C2)c2cnc(Nc3ccnc(N4CC[C@@H](O)[C@@H](F)C4)n3)cc21,149 nM
16,CC(C)n1nc(N[C@H]2CCOC2)c2cnc(Nc3ccnc(-c4cnn(S(=O)(=O)C5CC5)c4)n3)cc21,373 nM
17,CCC(C)n1nc(N2CC(N)C(F)(F)C2)c2cnc(Nc3ccnc(N4CCC(C)(O)CC4)n3)cc21 (stereo not given),761 nM
18,CCC(C)n1nc(N2CCNC(=O)C2)c2cnc(Nc3ccnc(N4CCC(C)(O)CC4)n3)cc21 (stereo not given),1760 nM
19,CC(C)n1nc(NC2CCS(=O)(=O)C2)c2cnc(Nc3ccnc(-c4cnn(S(=O)(=O)C5CC5)c4)n3)cc21 (stereo not given),1640 nM
20,CC(n1nc(N2CC3(COC3)C2)c2cnc(Nc3ccnc(-c4cnn(S(=O)(=O)C5CC5)c4)n3)cc21)C(F)(F)F (stereo not given),699 nM

row,SMILES,EC50
1,CC[C@@H](C)n1nc(N2CC3(COC3)C2)c2cnc(Nc3ccnc(N4CC[C@](C)(O)[C@H](F)C4)n3)cc21,1160 nM and 851 nM
2,CC(C)n1nc(N2CC(C(=O)N3CC[C@@H](CO)C3)C2)c2cnc(Nc3ccnc(-c4cnn(S(=O)(=O)C5CC5)c4)n3)cc21,1830 nM
3,CCC(C)n1nc(N2CC(F)(F)C2)c2cnc(Nc3ccnc(N4CCC(C)(O)CC4)n3)cc21 (stereo not given),1600 nM
4,CC(C)n1nc(N2CCOC2=O)c2cnc(Nc3ccnc(-c4cnn(S(=O)(=O)C5CC5)c4)n3)cc21,206 nM
5,CC(C)n1nc(N2CCC2)c2cnc(Nc3ccnc(-c4cnn(S(=O)(=O)C5CC5)c4)n3)cc21,158 nM
6,CC(C)n1nc(N2CC[C@@H](CO)C2)c2cnc(Nc3ccnc(-c4cnn(S(=O)(=O)C5CC5)c4)n3)cc21,162 nM
7,CC(C)n1nc(NCC(N)=O)c2cnc(Nc3ccnc(-c4cnn(S(=O)(=O)C5CC5)c4)n3)cc21,5440 nM
8,CC(C)n1nc(N2CC(CC#N)C2)c2cnc(Nc3ccnc(-c4cnn(S(=O)(=O)C5CC5)c4)n3)cc21,184 nM
9,CCC(C)n1nc(N2CCNC2=O)c2cnc(Nc3ccnc(N4CC[C@H](O)[C@H](F)C4)n3)cc21 (stereo not given in full),208 nM
10,COC1CCN(c2nccc(Nc3cc4c(cn3)c(N3CCCC3)nn4C(C)C)n2)CC1,380 nM
11,CC[C@H](C)n1nc(N2CC[C@H](O)C2)c2cnc(Nc3ccnc(N4CC[C@](C)(O)[C@H](F)C4)n3)cc21,371 nM
12,COC1CCN(c2nccc(Nc3cc4c(cn3)c(N3CC5(COC5)C3)nn4C(C)C)n2)CC1,388 nM
13,CCS(=O)(=O)n1cc(-c2nccc(Nc3cc4c(cn3)c(NC3CCOC3)nn4C(C)C)n2)cn1 (stereo not given),272 nM
14,CC(C)n1nc(N2CCNC(=O)C2)c2cnc(Nc3ccnc(-c4cnn(S(=O)(=O)C5CC5)c4)n3)cc21,738 nM
15,CCC(C)n1nc(N2CC[C@@H](O)C2)c2cnc(Nc3ccnc(N4CCC(C)(O)CC4)n3)cc21 (stereo not given in full),619 nM
16,CCC(C)n1nc(N2CCCC2=O)c2cnc(Nc3ccnc(N4CC[C@@H](O)[C@@H](F)C4)n3)cc21 (stereo not given in full),300 nM
17,CCC(C)n1nc(N2CC[C@@H](O)C2)c2cnc(Nc3ccnc(N4CCC(S(C)(=O)=O)CC4)n3)cc21 (stereo not given in full),1110 nM
18,CC(C)n1nc(N2CCOCC2)c2cnc(Nc3ccnc(-c4cnn(CC5CC5)c4)n3)cc21,1840 nM
19,CCS(=O)(=O)n1cc(-c2nccc(Nc3cc4c(cn3)c(NC3COC3)nn4C(C)C)n2)cn1,921 nM
20,CC(C)n1nc(N2CC3(COC3)C2)c2cnc(Nc3ccnc(N4CCC(O)C(C)(C)C4)n3)cc21 (stereo not given),159 nM
